Data on seven compounds can be found in ChEMBL document CHEMBL1122719, “Steroids. 2. Synthesis of C-18 functionalized steroids via the Smith-Hughes route” (J Med Chem, 1984).

The target of the first assay is T1, Progesterone receptor (Gallus gallus) (UniProt P07812).
T1 sequence (whole entry): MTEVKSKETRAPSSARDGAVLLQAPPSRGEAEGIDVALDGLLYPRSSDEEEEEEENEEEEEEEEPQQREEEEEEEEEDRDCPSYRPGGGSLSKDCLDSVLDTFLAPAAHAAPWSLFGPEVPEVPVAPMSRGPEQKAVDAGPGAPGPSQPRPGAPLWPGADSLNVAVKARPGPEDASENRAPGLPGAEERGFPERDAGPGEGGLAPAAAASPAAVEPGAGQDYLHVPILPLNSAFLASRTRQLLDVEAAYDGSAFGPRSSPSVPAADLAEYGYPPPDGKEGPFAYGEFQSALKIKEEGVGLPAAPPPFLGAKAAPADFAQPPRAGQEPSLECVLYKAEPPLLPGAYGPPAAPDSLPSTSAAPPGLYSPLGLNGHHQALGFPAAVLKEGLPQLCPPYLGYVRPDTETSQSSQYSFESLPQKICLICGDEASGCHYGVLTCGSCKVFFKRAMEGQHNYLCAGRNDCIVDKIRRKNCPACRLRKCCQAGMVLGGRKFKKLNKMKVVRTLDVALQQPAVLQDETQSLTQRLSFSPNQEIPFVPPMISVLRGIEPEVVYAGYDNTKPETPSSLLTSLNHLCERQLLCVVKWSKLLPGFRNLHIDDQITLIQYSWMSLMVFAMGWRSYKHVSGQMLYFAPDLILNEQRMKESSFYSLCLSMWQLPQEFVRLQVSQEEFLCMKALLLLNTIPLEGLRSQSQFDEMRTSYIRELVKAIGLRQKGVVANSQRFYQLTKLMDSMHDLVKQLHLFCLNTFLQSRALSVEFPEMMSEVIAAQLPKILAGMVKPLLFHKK
Put plainly: In vitro displacement of progesterone from oviduct progesterone receptor relative to progesterone.
On to `C#C[C@@H](O)C12CCCC1C1CCC3=CC(=O)CC[C@@H]3C1CC2.C#C[C@H](O)C12CCCC1C1CCC3=CC(=O)CC[C@@H]3C1CC2` (stereo partly drawn), for which the Relative binding affinity was 3.1%. Take `C#C[C@]1(O)CC[C@H]2[C@@H]3CCC4=CC(=O)CC[C@@H]4[C@H]3CC[C@@]21C` [NORETHINDRONE]: the Relative binding affinity turned out to be 350%. For the compound `CC(=O)C[C@@]12CCC[C@H]1[C@@H]1CCC3=CC(=O)CC[C@@H]3[C@H]1CC2`, the Relative binding affinity stood at 2%. Still for that read-out and setting: the value for `CC(=O)[C@H]1CC[C@H]2[C@@H]3CCC4=CC(=O)CC[C@]4(C)[C@H]3CC[C@]12C` was 100%.

With `C#C[C@@H](O)C12CCCC1C1CCC3=CC(=O)CC[C@@H]3C1CC2` (stereo partly drawn), the Relative binding affinity was 0.6%.

For the compound `CC(=O)OC(C(C)=O)[C@@]12CCC[C@H]1[C@@H]1CCC3=CC(=O)CC[C@@H]3[C@H]1CC2` (stereo partly drawn), the Relative binding affinity was determined as 0.1%.

For the next assay, the target named is Estrogen receptor (Rattus norvegicus, UniProt P06211+Q62986). Put plainly: Equilibrium dissociation constant for rat uterine estrogen receptor binding [3H]estradiol. The assay is classed as protein assay.
Consider `C#C[C@]1(O)CC[C@H]2[C@@H]3CCC4=CC(=O)CC[C@@H]4[C@H]3CC[C@@]21C` [NORETHINDRONE], for which the Kd stood at 0.63 nM.

Compound `OC[C@@]12CCC[C@H]1[C@@H]1CCc3cc(O)ccc3[C@H]1CC2` yielded a Kd of 310 nM.
